Measured values reported in patent publication US20240140970A1, “A […], AND PREPARATION METHOD AND USE THEREOF” (ASCENTAWITS PHARMACEUTICALS, LTD., priority 2021, published 2024).
“And” between values parts separate entries of the source, which are not always exact repeats. Identical values can stand only once.

Tests used:
[1] = Stability of AST-2660 and AST-2660-D8 methanol stock/working solutions (LC-MS/MS peak area, stored vs fresh solution); format: physicochemical
Description: The relevant parameters of the LC-MS/MS experimental method are provided.
AST-2660 (prepared by referring to Example 1 and selecting non-deuterated raw materials) standard stock solution (methanol solution with a concentration of 1.0 mg/ml): an appropriate amount of AST-2660 was taken, added with an appropriate amount of methanol, diluted and mixed thoroughly to obtain 1.0 mg/ml of solution.
A 100 μL standard stock solution of AST-2660 was taken, added with 9900 μL of methanol, diluted and mixed thoroughly to obtain 10.0 μg/ml of calibration standard working solution.
[…] A 20 μL of internal standard stock solution of AST-2660-D8 was taken, added with 9980 μL methanol, diluted and mixed thoroughly to obtain 100 ng/ml of internal standard working solution.
It can be seen from Table 10 that the accuracy of the stability of the AST-2660 working solution and the internal standard AST-2660-D8 working solution was within ±8.1%, and the precision was less than 5.5%. Stability analysis criteria: the difference between the storage stable solution and the freshly prepared solution must be within ±10.0%, and the CV of each replicate experiment must not be greater than 10.0%. Therefore, both AST-2660 and AST-2660-D8 (internal standard) working solutions had good stability and met the requirements under various storage conditions.

[2] = Stability of aqueous solution of AST-2660-D8-sodium salt by 31P-NMR with HMPA as internal standard; format: physicochemical
Description: This example is to study the stability of the sample solution by detecting the content of the aqueous solution of AST-2660-D8-sodium salt: ^31P-NMR was used for detection, and the content of the aqueous solution of AST-2660-D8-sodium salt was characterized by comparing the area ratio of ^31peak of HMPA as an internal standard to that of ^31P peak of AST-2660-D8 sodium salt within 48 hours, thereby determining whether the mass of the sample solution was reduced as a result of degradation.
^31P-NMR of the samples was run on an NMR instrument.
HMPA (21.8 mg, 0.1217 mmol) was dissolved in water (2.20 mL), wherein the total mass was […], and the concentration of HMPA was 5.72×10^−5 mmol/mg. A solution of AST-2660-D8-sodium salt (588 mg, about 0.5 mL) and a solution of HMPA (293 mg, 1.676×10^−2 mmol) were mixed together as samples for 31 P-NMR analysis under −20° C. storage conditions at different times. The ratio of integrated peak area of the nuclear magnetic peak (about 29.874 ppm) for the corresponding HMPA to that of the nuclear magnetic peak (about 24.491 ppm) for AST-2660-D8-sodium salt in the nuclear magnetic spectrum was calculated, and the integrated peak of the nuclear magnetic peak for HMPA was set as 1.
According to the same operation, a sample with another concentration was formulated for detection, and ^31P-NMR analysis was performed under −78° C. storage conditions at different times. […]

[3] = 100 ng/ml methanol solution, fresh stock solution, t = 0
[4] = 100 ng/ml methanol solution, working solution stored at −70° C., t = 26 days
[5] = 1 mg/ml methanol solution, fresh stock solution, t = 0
[6] = 1 mg/ml methanol solution, stock solution stored at −70° C., t = 26 days

[2H]C1([2H])N(P(=O)([O-])N2C([2H])([2H])C2([2H])[2H])C1([2H])[2H].[Na+] [AST-2660-D8 sodium salt]
RE (% difference, peak area stock vs fresh solution) ([1]; 100 ng/ml AST-2660-D8 methanol working solution, 26 days at −70° C.): RE: 0.9%
Peak area (AST-2660-D8), Mean value [1, 3]: 3282130
Peak area (AST-2660-D8), single replicates [1, 3]: 3253860 and 3323720 and 3204960 and 3285390 and 3314390 and 3310460
Deviation % over fresh stock solution [1, 4]: 0.9%
Peak area (AST-2660-D8), Mean value [1, 4]: 3311013
Peak area (AST-2660-D8), single replicates [1, 4]: 3289570 and 3332520 and 3294750 and 3307750 and 3306110 and 3335380
Peak area (AST-2660-D8), Mean value [1, 5]: 548278.5
Peak area (AST-2660-D8), single replicates [1, 5]: 574450 and 589227 and 535059 and 530296 and 537317 and 523322
Deviation % over fresh stock solution [1, 6]: −2.0%
Peak area (AST-2660-D8), Mean value [1, 6]: 537342.5
Peak area (AST-2660-D8), single replicates [1, 6]: 539154 and 532283 and 520321 and 550350 and 532469 and 549478
stability of methanol solution (in words) ([1]; stored for 26 days at −70° C.): strong stability
concentration of AST-2660-D8 sodium salt ([2]; aqueous solution after storage at −20° C. for 6 months): 1370 µg/mL
concentration of AST-2660-D8 sodium salt ([2]; aqueous solution after storage at −78° C. for 6 months): 1710 µg/mL
decrease of concentration ([2]; aqueous solution, 6 months of storage at −20° C.): 27.5%
decrease of concentration ([2]; aqueous solution, 6 months of storage at −78° C.): 9.5%
concentration of AST-2660-D8 sodium salt ([2]; aqueous solution, day 0): 1890 µg/mL
stability of solution (in words) ([2]; stored at −20 to −78° C. for 48 hours (2 days)): stable
